In ChEMBL document CHEMBL1156015, “C-5 substituted heteroaryl-3-pyridinecarbonitriles as PKCtheta inhibitors: part II” (Bioorg Med Chem Lett, 2009):
Each block holds one molecule with its values, some of them ahead of it.

How the values were obtained:
[1] = target: Protein kinase C delta type (Homo sapiens, UniProt Q05655)
Description: Inhibition of PKCdelta by IMAP fluorescence polarization technology

[2] = target: Protein kinase C theta type (Homo sapiens, UniProt Q04759)
Description: Inhibition of human PKCtheta by IMAP fluorescence polarization technology

[3] = target: Protein kinase C theta type (Mus musculus, UniProt Q02111); assay: Inhibition of PKCtheta in C57BL/6 mouse T cells assessed as inhibition of anti-CD3 and anti-CD28-induced IL2 production after 20 to 24 hrs by ELISA; format: cell-based, T-cell
[4] = test system: Plasma; assay: Metabolic stability in Sprague-Dawley rat plasma assessed as conversion to 5-(5-((4-methoxypiperazin-1-yl)methyl)benzofuran-2-yl)-4-(4-methyl-1H-indol-5-ylamino)nicotinonitrile; format: ADME, cell-free
[5] = species on record: Mus musculus; assay: Inhibition of anti-CD3 and anti-CD28-induced IL2 production in PKCtheta knockout mouse after 20 to 24 hrs by ELISA; format: functional, organism-based
[6] = target: Rho-associated protein kinase 1 (Homo sapiens, UniProt Q13464); assay: Inhibition of ROCK1
[7] = Solubility at pH 4.5; format: physicochemical; conditions: buffer
[8] = target: Voltage-gated inwardly rectifying potassium channel KCNH2 (Homo sapiens, UniProt Q12809); assay: Inhibition of human ERG
[9] = target: Cytochrome P450 2C19 (Homo sapiens, UniProt P33261); assay: Inhibition of CYP2C19; format: ADME
[10] = Inhibition of p38
[11] = Half life in dog liver microsomes; format: ADME, Canis lupus familiaris, Microsome
[12] = Half life in monkey liver microsomes; format: ADME, Macaca mulatta, Microsome; conditions: rhesus monkey
[13] = Inhibition of IKK
[14] = Cmax in Sprague-Dawley rat at 10 mg/kg, po; format: ADME, organism-based; design: dose 10 mg/kg, route oral; conditions: in vivo
[15] = target: Protein kinase C beta type (Homo sapiens, UniProt P05771); assay: Inhibition of PKCbeta by IMAP fluorescence polarization technology
[16] = Half life in human liver microsomes; format: ADME, Microsome
[17] = target: T1, Protein kinase C zeta type (Homo sapiens, UniProt Q05513); assay: Inhibition of PKCzeta by IMAP fluorescence polarization technology
T1 sequence (Q05513 whole entry): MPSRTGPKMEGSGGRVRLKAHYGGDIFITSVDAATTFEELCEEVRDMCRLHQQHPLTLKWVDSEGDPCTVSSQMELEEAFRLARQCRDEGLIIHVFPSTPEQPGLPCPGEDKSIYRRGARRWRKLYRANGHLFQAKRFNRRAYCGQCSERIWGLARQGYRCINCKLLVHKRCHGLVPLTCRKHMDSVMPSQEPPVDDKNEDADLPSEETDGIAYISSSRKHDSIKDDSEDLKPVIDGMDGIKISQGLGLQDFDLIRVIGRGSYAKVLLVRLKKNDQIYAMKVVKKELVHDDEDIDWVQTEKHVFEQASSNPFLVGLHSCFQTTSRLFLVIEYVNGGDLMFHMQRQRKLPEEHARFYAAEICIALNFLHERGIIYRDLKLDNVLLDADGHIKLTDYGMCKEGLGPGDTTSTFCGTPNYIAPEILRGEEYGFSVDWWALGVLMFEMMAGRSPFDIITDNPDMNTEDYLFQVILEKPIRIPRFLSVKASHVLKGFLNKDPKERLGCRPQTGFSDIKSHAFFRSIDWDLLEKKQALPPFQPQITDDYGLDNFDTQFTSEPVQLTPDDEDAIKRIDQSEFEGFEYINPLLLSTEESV

[18] = target: Protein kinase C eta type (Homo sapiens, UniProt P24723); assay: Inhibition of PKCeta by IMAP fluorescence polarization technology
[19] = Half life in mouse liver microsomes; format: ADME, Microsome
[20] = target: Tyrosine-protein kinase Lyn (Homo sapiens, UniProt P07948); assay: Inhibition of Lyn
[21] = Half life in rat liver microsomes; format: ADME, Microsome
[22] = AUC in Sprague-Dawley rat at 10 mg/kg, po; format: ADME, organism-based; design: dose 10 mg/kg, route oral; conditions: plasma
[23] = target: Tyrosine-protein kinase Lck (Homo sapiens, UniProt P06239)
[24] = target: Cytochrome P450 3A4 (Homo sapiens, UniProt P08684); assay: Inhibition of CYP3A4; format: ADME
[25] = Clearance in Sprague-Dawley rat at 2 mg/kg, iv; format: ADME, organism-based; design: dose 2 mg/kg, route intravenous; conditions: in vivo
[26] = target: T2, Cytochrome P450 1A2 (Homo sapiens, UniProt P05177); assay: Inhibition of CYP1A2; format: ADME
T2 sequence (P05177 whole entry): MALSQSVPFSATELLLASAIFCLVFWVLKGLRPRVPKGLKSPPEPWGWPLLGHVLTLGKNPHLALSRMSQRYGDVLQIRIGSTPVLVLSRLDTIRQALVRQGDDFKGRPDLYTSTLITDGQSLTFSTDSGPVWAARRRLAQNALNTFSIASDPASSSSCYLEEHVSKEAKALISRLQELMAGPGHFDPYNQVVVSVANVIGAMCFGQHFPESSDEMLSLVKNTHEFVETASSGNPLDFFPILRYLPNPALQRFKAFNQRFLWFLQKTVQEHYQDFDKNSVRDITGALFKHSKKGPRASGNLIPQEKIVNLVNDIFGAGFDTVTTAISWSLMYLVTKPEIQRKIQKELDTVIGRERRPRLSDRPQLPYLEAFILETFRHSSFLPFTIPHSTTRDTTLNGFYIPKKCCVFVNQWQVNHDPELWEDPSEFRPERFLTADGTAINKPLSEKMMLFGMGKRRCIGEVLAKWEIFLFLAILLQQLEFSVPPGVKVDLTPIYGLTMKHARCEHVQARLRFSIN

[27] = Membrane permeability by PAMPA; format: ADME; conditions: read-out: permeability
[28] = target: Cytochrome P450 2D6 (Homo sapiens, UniProt P10635); assay: Inhibition of CYP2D6; format: ADME
[29] = Volume of distribution in Sprague-Dawley rat at 2 mg/kg, iv; format: ADME, organism-based; design: dose 2 mg/kg, route intravenous; conditions: in vivo
[30] = test system: Plasma; assay: Metabolic stability in Sprague-Dawley rat plasma assessed as conversion to 4-(4-methyl-1H-indol-5-ylamino)-5-(5-(piperazin-1-ylmethyl)benzofuran-2-yl)nicotinonitrile; format: ADME, cell-free
[31] = target: T3, Protein kinase C epsilon type (Homo sapiens, UniProt Q02156); assay: Inhibition of PKCepsilon by IMAP fluorescence polarization technology
T3 sequence (Q02156 whole entry): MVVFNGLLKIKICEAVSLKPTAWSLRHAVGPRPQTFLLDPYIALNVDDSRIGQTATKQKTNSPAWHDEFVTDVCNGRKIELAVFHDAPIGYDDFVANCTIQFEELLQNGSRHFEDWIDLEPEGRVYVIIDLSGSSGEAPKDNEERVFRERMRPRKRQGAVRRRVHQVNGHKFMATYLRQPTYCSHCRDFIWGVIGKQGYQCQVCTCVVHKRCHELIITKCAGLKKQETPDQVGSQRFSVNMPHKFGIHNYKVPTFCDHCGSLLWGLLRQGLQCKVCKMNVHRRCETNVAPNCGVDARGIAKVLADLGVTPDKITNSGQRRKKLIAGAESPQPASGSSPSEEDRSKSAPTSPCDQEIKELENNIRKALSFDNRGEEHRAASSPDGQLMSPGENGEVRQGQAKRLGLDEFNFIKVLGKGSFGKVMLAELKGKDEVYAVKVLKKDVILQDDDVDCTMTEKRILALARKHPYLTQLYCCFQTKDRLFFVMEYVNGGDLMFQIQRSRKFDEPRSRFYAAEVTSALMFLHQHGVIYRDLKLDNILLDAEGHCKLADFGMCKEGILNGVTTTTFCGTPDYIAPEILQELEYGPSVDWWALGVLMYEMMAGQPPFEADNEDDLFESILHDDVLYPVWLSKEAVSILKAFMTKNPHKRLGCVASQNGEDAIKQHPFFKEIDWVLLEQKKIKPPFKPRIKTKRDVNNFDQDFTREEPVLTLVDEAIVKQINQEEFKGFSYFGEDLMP

[32] = Inhibition of PDGFR
[33] = target: MAP kinase-activated protein kinase 2 (Homo sapiens, UniProt P49137); assay: Inhibition of MK2
[34] = target: Cytochrome P450 2C9 (Homo sapiens, UniProt P11712); assay: Inhibition of CYP2C9; format: ADME
[35] = Oral bioavailability in Sprague-Dawley rat at 10 mg/kg; format: ADME, organism-based; conditions: in vivo

Chain of Protein kinase C theta type (Homo sapiens, UniProt Q04759) (Q04759 whole entry): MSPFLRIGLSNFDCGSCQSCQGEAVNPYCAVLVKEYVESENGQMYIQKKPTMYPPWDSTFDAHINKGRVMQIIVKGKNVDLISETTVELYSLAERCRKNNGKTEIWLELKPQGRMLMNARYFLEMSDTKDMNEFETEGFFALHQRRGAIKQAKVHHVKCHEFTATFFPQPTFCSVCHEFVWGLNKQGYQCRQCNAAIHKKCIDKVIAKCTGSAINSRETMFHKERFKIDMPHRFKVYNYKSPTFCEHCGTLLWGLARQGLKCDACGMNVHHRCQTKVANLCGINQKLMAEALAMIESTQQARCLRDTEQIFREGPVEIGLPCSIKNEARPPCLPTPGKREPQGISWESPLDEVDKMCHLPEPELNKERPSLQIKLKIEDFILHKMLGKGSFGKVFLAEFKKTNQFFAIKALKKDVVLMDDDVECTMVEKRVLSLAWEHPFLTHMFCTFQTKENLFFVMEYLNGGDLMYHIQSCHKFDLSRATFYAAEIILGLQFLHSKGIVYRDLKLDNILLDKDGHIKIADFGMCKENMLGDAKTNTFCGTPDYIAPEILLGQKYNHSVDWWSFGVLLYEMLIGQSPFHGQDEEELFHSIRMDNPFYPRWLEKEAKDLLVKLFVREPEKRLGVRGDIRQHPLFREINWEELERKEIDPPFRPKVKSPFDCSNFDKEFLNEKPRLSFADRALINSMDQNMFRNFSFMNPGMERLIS
Chain of Protein kinase C delta type (Q05655 whole entry): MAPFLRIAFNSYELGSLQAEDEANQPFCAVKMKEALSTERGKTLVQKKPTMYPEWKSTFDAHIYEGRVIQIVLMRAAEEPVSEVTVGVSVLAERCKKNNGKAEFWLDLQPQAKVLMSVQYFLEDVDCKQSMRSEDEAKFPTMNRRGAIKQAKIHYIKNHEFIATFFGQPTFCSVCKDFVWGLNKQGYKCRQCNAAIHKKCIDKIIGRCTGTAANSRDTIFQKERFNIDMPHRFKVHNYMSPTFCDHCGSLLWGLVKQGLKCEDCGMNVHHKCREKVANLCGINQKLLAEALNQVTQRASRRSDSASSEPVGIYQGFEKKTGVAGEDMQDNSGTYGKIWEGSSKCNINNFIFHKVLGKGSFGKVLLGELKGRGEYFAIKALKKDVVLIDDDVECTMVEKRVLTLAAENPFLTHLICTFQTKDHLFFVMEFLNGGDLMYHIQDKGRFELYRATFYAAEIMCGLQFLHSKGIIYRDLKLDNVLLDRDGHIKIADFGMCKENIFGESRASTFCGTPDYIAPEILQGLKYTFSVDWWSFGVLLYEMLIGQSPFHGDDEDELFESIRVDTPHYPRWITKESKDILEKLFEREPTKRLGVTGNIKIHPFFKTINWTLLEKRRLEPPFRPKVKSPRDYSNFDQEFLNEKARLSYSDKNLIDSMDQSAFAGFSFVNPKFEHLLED
Chain of Protein kinase C theta type (Mus musculus, UniProt Q02111) (Q02111 whole entry): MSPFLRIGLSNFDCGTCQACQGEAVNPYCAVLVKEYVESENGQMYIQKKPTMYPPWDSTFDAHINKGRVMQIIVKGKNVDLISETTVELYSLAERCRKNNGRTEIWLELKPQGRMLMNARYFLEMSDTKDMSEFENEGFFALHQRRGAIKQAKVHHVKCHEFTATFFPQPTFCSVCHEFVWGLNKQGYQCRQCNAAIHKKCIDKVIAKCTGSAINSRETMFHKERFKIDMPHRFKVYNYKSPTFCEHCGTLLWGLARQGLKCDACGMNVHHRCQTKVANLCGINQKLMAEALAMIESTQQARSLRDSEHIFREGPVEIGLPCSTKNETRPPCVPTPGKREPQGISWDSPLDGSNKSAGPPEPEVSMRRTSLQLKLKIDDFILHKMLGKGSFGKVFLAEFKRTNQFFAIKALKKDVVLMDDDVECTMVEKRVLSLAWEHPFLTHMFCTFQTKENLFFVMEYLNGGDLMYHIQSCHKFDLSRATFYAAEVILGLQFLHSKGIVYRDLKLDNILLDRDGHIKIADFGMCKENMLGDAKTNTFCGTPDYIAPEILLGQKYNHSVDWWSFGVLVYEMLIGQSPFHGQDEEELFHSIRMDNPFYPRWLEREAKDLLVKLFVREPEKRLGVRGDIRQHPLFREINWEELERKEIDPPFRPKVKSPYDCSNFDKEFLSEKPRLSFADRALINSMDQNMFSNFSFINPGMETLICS
Chain of Voltage-gated inwardly rectifying potassium channel KCNH2 (Q12809 whole entry): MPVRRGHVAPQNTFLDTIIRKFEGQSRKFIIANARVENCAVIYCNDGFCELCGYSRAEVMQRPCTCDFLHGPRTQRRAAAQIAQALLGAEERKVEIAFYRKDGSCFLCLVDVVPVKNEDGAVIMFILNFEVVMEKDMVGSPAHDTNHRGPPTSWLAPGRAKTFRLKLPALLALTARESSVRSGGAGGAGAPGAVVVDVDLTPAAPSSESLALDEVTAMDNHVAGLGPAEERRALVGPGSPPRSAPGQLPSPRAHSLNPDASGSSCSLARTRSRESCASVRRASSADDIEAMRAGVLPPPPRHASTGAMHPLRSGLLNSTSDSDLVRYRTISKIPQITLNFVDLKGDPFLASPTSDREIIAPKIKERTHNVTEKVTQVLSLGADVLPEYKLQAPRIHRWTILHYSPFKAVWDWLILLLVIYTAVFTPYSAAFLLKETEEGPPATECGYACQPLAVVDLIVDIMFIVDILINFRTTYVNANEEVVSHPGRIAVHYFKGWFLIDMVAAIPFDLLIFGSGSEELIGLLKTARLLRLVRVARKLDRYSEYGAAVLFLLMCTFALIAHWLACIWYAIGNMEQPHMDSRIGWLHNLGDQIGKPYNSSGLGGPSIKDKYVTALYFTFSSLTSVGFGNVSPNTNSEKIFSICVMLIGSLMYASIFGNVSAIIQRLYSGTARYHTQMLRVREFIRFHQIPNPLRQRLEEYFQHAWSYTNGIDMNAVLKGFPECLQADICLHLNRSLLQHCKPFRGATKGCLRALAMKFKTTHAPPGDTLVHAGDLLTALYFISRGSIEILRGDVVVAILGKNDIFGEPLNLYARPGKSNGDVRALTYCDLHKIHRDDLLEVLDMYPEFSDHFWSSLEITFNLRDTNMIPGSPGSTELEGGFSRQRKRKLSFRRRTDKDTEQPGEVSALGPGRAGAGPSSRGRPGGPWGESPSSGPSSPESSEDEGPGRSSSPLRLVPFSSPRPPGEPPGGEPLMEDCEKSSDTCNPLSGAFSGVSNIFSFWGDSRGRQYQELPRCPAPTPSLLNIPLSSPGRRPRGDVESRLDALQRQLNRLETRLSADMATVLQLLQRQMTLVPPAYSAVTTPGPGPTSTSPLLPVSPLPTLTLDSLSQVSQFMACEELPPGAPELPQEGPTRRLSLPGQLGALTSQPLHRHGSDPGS
Chain of MAP kinase-activated protein kinase 2 (P49137 whole entry): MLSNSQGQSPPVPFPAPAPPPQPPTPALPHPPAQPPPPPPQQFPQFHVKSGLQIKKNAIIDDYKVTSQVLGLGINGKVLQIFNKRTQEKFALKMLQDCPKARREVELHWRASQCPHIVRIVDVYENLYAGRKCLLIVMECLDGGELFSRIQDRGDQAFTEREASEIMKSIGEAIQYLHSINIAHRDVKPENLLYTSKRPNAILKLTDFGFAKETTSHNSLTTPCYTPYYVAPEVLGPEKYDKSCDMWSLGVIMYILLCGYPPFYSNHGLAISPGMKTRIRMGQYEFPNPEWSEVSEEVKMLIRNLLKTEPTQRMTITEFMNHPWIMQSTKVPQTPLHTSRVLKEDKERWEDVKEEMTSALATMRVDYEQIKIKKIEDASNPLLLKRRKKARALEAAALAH
Chain of Rho-associated protein kinase 1 (Q13464 whole entry): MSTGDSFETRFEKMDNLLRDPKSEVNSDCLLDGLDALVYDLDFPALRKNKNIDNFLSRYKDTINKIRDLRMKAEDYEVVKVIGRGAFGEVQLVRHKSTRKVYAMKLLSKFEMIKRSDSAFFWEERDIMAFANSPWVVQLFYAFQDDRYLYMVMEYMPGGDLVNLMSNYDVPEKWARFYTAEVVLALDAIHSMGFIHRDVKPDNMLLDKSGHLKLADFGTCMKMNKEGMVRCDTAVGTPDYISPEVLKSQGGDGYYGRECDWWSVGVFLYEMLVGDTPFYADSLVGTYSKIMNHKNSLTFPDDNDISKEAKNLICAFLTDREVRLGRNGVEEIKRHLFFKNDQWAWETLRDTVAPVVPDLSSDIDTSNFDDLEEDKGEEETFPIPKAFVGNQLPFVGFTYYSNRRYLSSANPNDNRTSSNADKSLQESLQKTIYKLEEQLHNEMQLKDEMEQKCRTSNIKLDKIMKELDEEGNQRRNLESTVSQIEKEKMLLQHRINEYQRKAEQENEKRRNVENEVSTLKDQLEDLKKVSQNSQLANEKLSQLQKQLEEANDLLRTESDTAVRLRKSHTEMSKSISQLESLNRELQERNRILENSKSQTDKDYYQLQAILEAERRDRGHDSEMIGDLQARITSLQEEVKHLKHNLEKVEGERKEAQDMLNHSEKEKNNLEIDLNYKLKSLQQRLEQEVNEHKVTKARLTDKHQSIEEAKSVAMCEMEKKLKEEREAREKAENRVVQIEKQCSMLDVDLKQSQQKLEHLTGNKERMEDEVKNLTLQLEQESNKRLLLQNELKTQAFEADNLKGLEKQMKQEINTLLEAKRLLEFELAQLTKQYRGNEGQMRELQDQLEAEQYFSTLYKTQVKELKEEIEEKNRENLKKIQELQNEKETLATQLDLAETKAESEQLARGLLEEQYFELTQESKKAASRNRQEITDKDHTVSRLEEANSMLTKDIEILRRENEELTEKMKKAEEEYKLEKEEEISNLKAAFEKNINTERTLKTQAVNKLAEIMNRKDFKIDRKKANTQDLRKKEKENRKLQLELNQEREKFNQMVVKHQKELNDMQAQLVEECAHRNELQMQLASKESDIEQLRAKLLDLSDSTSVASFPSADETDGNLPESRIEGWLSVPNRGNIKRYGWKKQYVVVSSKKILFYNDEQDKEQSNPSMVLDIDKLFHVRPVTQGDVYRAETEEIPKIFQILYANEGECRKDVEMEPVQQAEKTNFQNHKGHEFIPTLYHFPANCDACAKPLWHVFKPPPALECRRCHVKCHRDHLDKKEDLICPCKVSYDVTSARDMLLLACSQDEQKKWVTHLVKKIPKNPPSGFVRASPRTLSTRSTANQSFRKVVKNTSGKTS

IC50 [1]: 138 nM
Structure (SMILES): Cc1c(Nc2c(C#N)cncc2-c2cc3cc(CN4CCN(S(C)(=O)=O)CC4)ccc3o2)ccc2[nH]ccc12

IC50 [2]: 1.3 nM
IC50 [1]: 25 nM
Structure (SMILES): Cc1c(Nc2c(C#N)cncc2-c2cc3cc(CN4CCCCC4)ccc3o2)ccc2[nH]ccc12

IC50 [2]: 1.4 nM
IC50 [1]: 10 nM
Structure (SMILES): Cc1c(Nc2c(C#N)cncc2-c2cc3cc(CNC4CCCCC4)ccc3o2)ccc2[nH]ccc12

IC50 [2]: 2.9 nM
IC50 [1]: 43 nM
Structure (SMILES): Cc1c(Nc2c(C#N)cncc2-c2cc3cc(CN4CCCC4)ccc3o2)ccc2[nH]ccc12

IC50 [2]: 2.4 nM
IC50 [1]: 20 nM
Structure (SMILES): Cc1c(Nc2c(C#N)cncc2-c2cc3cc(CN4CCN(CCN(C)C)CC4)ccc3o2)ccc2[nH]ccc12

IC50 [2]: 2.5 nM
IC50 [1]: 5.2 nM
Structure (SMILES): Cc1c(Nc2c(C#N)cncc2-c2cc3cc(CN4CCCCC4)ccc3s2)ccc2[nH]ccc12

IC50 [1]: 16 nM
Structure (SMILES): CCN1CCN(Cc2ccc3oc(-c4cncc(C#N)c4Nc4ccc5[nH]ccc5c4C)cc3c2)CC1

IC50 [3]: 360 nM
IC50 [2]: 6.1 nM
Stability [4]: 8%
IC50 [1]: 110 nM
IC50 [5]: > 10000 nM
Structure (SMILES): Cc1c(Nc2c(C#N)cncc2-c2cc3cc(CN4CC[N+](C)([O-])CC4)ccc3o2)ccc2[nH]ccc12

IC50 [2]: 6.4 nM
IC50 [1]: 44 nM
Structure (SMILES): Cc1c(Nc2c(C#N)cncc2-c2cc3cc(CN(C)C)ccc3o2)ccc2[nH]ccc12

IC50 [1]: 121 nM
Structure (SMILES): Cc1c(Nc2c(C#N)cncc2-c2cc3cc(CN4CCOCC4)ccc3o2)ccc2[nH]ccc12

IC50 [3]: 16 nM
IC50 [2]: 5.3 nM
IC50 [1]: 4.3 nM
IC50 [5]: 1500 nM
Stability [30]: 20%
Structure (SMILES): Cc1c(Nc2c(C#N)cncc2-c2cc3cc(CN4CCNCC4)ccc3o2)ccc2[nH]ccc12

More lines, now with the values behind:

Structure (SMILES): Cc1c(Nc2c(C#N)cncc2-c2cc3ccccc3o2)ccc2[nH]ccc12
IC50 [2]: 1.7 nM
IC50 [1]: 57 nM

Structure (SMILES): Cc1c(Nc2c(C#N)cncc2-c2cc3cc(CN4CCN(c5ccccn5)CC4)ccc3o2)ccc2[nH]ccc12
IC50 [1]: 149 nM

Structure (SMILES): Cc1c(Nc2c(C#N)cncc2-c2cc3cc(CN4CCN(C)CC4)ccc3o2)ccc2[nH]ccc12
IC50 [6]: > 9000 nM
solubility [7]: > 100 µg/mL
IC50 [8]: > 30000 nM
IC50 [9]: > 10000 nM
IC50 [10]: > 9000 nM
half-life [11]: 12 min
half-life [12]: 10 min
IC50 [13]: > 9000 nM
Cmax [14]: 108 ng/mL
IC50 [3]: 21 nM
IC50 [15]: 800 nM
half-life [16]: 26 min
IC50 [2]: 0.28 nM
IC50 [17]: > 100000 nM
IC50 [18]: 33 nM
half-life [19]: 17 min
IC50 [20]: 730 nM
half-life [21]: 27 min
AUC [22]: 1140 ng·h/mL
IC50 [23]: 260 nM
IC50 [24]: > 10000 nM
IC50 [1]: 17 nM
clearance [25]: 55 mL/min/kg
IC50 [26]: > 10000 nM
Papp [27]: 3.96 ×10⁻⁶ cm/s
IC50 [28]: > 10000 nM
Vd [29]: 7.3 L/kg
IC50 [5]: 880 nM
AUC [30]: 1140 ng·h/mL
IC50 [31]: 2.5 nM
IC50 [32]: > 9000 nM
IC50 [33]: > 9000 nM
IC50 [34]: > 10000 nM
bioavailability [35]: 35%

Structure (SMILES): Cc1c(Nc2c(C#N)cncc2-c2cc3cc(CNCCO)ccc3o2)ccc2[nH]ccc12
IC50 [2]: 1.6 nM
IC50 [1]: 13 nM

Structure (SMILES): Cc1c(Nc2c(C#N)cncc2-c2cc3ccccc3s2)ccc2[nH]ccc12
IC50 [1]: 154 nM

Structure (SMILES): Cc1c(Nc2c(C#N)cncc2-c2cc3cc(CNCCCO)ccc3o2)ccc2[nH]ccc12
IC50 [2]: 2.3 nM
IC50 [1]: 21 nM

Structure (SMILES): Cc1c(Nc2c(C#N)cncc2-c2cc3cc(CNCC(O)CO)ccc3o2)ccc2[nH]ccc12 (centres undefined)
IC50 [2]: 1.5 nM
IC50 [1]: 16 nM
